Read-outs that look alike come from different tables or passages of the source.
Tests used:
[1] = test system: recombinant RSV T400I variant; experiment: Resistance test with recombinant RSV T400I variant
[2] = Phase 2 study: population pharmacokinetics of plasma concentrations; type: in vivo, human (infants); settings: for Tmax / AUC(0-t) / Cmax / AUC(0-inf) / half-life: human, plasma; for Cmax: read-out: Cmax mean (CV %); for AUC(0-inf): read-out: AUC0–∞ mean (CV %); for half-life: read-out: t½ mean (CV %) (converted)
Protocol: Individual plasma concentrations of the active drug were measured, and PK were determined using nonlinear mixed‐effect models. In all cases, when new data were available, the updated model was used for evaluation under the assumption of an allometric coefficient of 0.75 and incorporation of CYP maturation. Using a Population PK (Pop‐PK) analysis approach, AUC0–∞, clearance (CL/F), volume of distribution (Vc/F), and other PK parameters were estimated for AK0529. Maximum plasma concentration (Cmax) was computed from the predicted profiles.
Clinical safety and tolerability were assessed on the safety population, comprising all subjects who received ≥1 dose of study drug. Clinical variables were evaluated in the full analysis population, which included all subjects who received a dose of study drug and for whom ≥1 post‐treatment assessment was available. Pharmacokinetic analysis was performed on those subjects in the safety population for whom both pre‐ and post‐dose samples were available.

RSV [3] = experiment: Phase 2 study: RSV viral load by quantitative reverse-transcription PCR on nasopharyngeal swab or aspirate; type: in vivo, human (infants); settings: for greater reduction in median viral load than placebo: Part 2, 2 mg/kg bid, not statistically significant
Excerpt: This was a double‐blind, placebo‐controlled, randomized, multicenter study with the primary objective to evaluate the safety and tolerability of single and multiple oral doses of AK0529. Secondary objectives were to evaluate the effect of AK0529 on Wang Respiratory Score, to determine the effects of treatment on viral load, and to characterize the pharmacokinetics (PK) of single and multiple AK0529 doses.
The study consisted of two parts. In both parts, subjects were randomized in a 2:1 ratio to receive active treatment or placebo. Subjects were stratified by age (6 to 24 months in Cohorts 1 and 3, and 1 to <6 months in Cohorts 2 and 4).
Part 1 was a single‐dose study with a 7‐day follow‐up. The doses administered to patients in Cohort 1 included 4, 2, and 1 mg/kg. The Safety Review Committee (SRC) reviewed PK and safety data after each of the sets of three patients, before further enrollment of subjects, and recommended 0.5 and 1 mg/kg as the doses for patients in Cohort 2.
In Part 2, subjects received AK0529 or placebo over 5 days and were followed until day 14 post‐initial dose. The doses in Cohort 3 included 1 and 0.5 mg/kg bid. In Cohort 4, the doses included 2, 1 and 0.5 mg/kg bid.

RSV [4] = test system: RSV; set-up: method as in PMID 31194544; settings: orally administered ref 9; cited from earlier work
[5] = Part 1, single oral dose 0.5 mg/kg
[6] = Part 1, single oral dose 1.0 mg/kg
[7] = Part 1, single oral dose 2.0 mg/kg
[8] = Part 1, single oral dose 4.0 mg/kg

Q: For `Cc1ccc2nc(N3CCS(=O)(=O)c4ccccc4C3)nc(NCC3(N)COC3)c2c1` [AK0529, ziresovir], which “susceptibility of recombinant RSV T400I variant” value [1] is on record?
A: The value was “resistance”.

Q: And the “elimination half-life in subjects aged <6 months” value ([2]; Part 1, compared with older subjects)?
A: The value was “slightly longer”.

Q: What about the “time to reach Cmax” value ([2]; Part 1, single doses except 4 mg/kg) of the same compound?
A: The value was “around 4 h”.

Q: And the “change in AUC with dose” value ([2]; Part 1, single doses up to 4 mg/kg, no apparent plateau)?
A: Its value is “dose‐dependent increase”.

Q: And the targeted drug exposure ([2]; Part 2, 2 mg/kg bid)?
A: Its targeted drug exposure is “reached”.

Q: And the “dose proportionality of mean Cmax and AUCτ” value ([2]; Part 2, across the dose range tested)?
A: The value was “approximate dose proportionality”.

Q: What about the “increase in AUCτ from Days 1 to 5 (accumulation)” value ([2]; Part 2, bid dosing) of the same compound?
A: Its value is “approximately 1.5 fold”.

Q: What about the median trough ([2]; Part 2, bid dosing) of the same compound?
A: The median trough was 12 h.

Q: And the Tmax ([2]; oral, Part 2, Days 1 and 5, read-out: median tmax)?
A: The Tmax was 2.5 to 3.8 h.

Q: What about the AUC(0-t) ([2]; oral, Part 1, single doses up to 4 mg/kg, read-out: AUC0–24) of the same compound?
A: The AUC(0-t) was at most 7780 ng·h/mL.

Q: And the Tmax ([2]; po, 0.5 mg/kg, Part 1, single oral dose 0.5 mg/kg, read-out: tmax median (range))?
A: Its Tmax is 4.5 h.

Q: What about the Tmax ([2]; po, 1 mg/kg, Part 1, single oral dose 1.0 mg/kg, read-out: tmax median (range)) of the same compound?
A: The Tmax was 4.3 h.

Q: What about the Tmax ([2]; po, 2 mg/kg, Part 1, single oral dose 2.0 mg/kg, read-out: tmax median (range)) of the same compound?
A: The Tmax was 3.3 h.

Q: What about the Tmax ([2]; po, 4 mg/kg, Part 1, single oral dose 4.0 mg/kg, read-out: tmax median (range)) of the same compound?
A: Its Tmax is about 2 h.

Q: And the Cmax ([2]; Part 1, single oral dose 0.5 mg/kg, N 4, all younger than 6 months)?
A: Its Cmax is 158 ng/mL.

Q: And the AUC(0-t) ([2]; Part 1, single oral dose 0.5 mg/kg, read-out: AUC0–24 mean (CV %))?
A: Its AUC(0-t) is 1770 ng·h/mL.

Q: And the AUC(0-inf) [2, 5]?
A: The AUC(0-inf) was 2060 ng·h/mL.

Q: And the half-life [2, 5]?
A: The half-life was 7.7 h.

Q: What about the Cmax ([2]; Part 1, single oral dose 1.0 mg/kg, N 6) of the same compound?
A: The Cmax was 302 ng/mL.

Q: And the AUC(0-t) ([2]; Part 1, single oral dose 1.0 mg/kg, read-out: AUC0–24 mean (CV %))?
A: Its AUC(0-t) is 2890 ng·h/mL.

Q: And the AUC(0-inf) [2, 6]?
A: The AUC(0-inf) was 3150 ng·h/mL.

Q: What about the half-life [2, 6] of the same compound?
A: Its half-life is 5.7 h.

Q: What about the Cmax ([2]; Part 1, single oral dose 2.0 mg/kg, N 4) of the same compound?
A: The Cmax was 375 ng/mL.

Q: What about the AUC(0-t) ([2]; Part 1, single oral dose 2.0 mg/kg, read-out: AUC0–24 mean (CV %)) of the same compound?
A: The AUC(0-t) was 3790 ng·h/mL.

Q: What about the AUC(0-inf) [2, 7] of the same compound?
A: Its AUC(0-inf) is 4200 ng·h/mL.

Q: What about the half-life [2, 7] of the same compound?
A: The half-life was 6.2 h.

Q: And the Cmax ([2]; Part 1, single oral dose 4.0 mg/kg, N 3 incl. one subject of Study AK0529-1002)?
A: The Cmax was 888 ng/mL.

Q: What about the AUC(0-t) ([2]; Part 1, single oral dose 4.0 mg/kg, read-out: AUC0–24 mean (CV %)) of the same compound?
A: The AUC(0-t) was 7780 ng·h/mL.

Q: What about the AUC(0-inf) [2, 8] of the same compound?
A: The AUC(0-inf) was 8280 ng·h/mL.

Q: What about the half-life [2, 8] of the same compound?
A: The half-life was 6 h.

Q: And the “reductions in viral load relative to placebo” value (RSV [3]; Part 1, 24 h after a single dose)?
A: Its value is under 1 log10 PFUe/mL.

Q: What about the “greater reduction in median viral load than placebo” value (RSV [3]; 72 h) of the same compound?
A: The value was 1.25 log10 PFUe/mL.

Q: What about the “greater reduction in median viral load than placebo” value (RSV [3]; 96 h post-dose) of the same compound?
A: The value was 1.73 log10 PFUe/mL.

Q: What about the antiviral efficacy (RSV [4]) of the same compound?
A: Its antiviral efficacy is “demonstrated antiviral efficacy”.

Source: PMC10368966, “Safety and efficacy of AK0529 in respiratory syncytial virus‐infected infant patients: A phase 2 proof‐of‐concept trial” (Influenza and Other Respiratory Viruses, 2023)
